Numbered stars: 1 amine (or outer) side, 2 acyl side, 3 side chain; on linkers, the order of the positions; unused ones are H or OH. Bridge positions count the residues as written; N and C are the ends. Square brackets hold non-standard residues; d marks the D form. Peptide text beside a SMILES is read from it. * marks the point of attachment. hPhe(3-Cl-4-CF3) = N[C@@H](CCc1ccc(C(F)(F)F)c(Cl)c1)C(=O)O; hPhe(3-F,4-CF3) = N[C@@H](CCc1ccc(C(F)(F)F)c(F)c1)C(=O)O; NMePhe(4-CF3) = CN[C@@H](Cc1ccc(C(F)(F)F)cc1)C(=O)O; NMeAbu(4,4,4-F3) = CN[C@@H](CC(F)(F)F)C(=O)O; NMePhe(4-Cl) = CN[C@@H](Cc1ccc(Cl)cc1)C(=O)O; NMePhe(2-OMe) = CN[C@@H](Cc1ccccc1OC)C(=O)O; NMePhe(4-Me) = CN[C@@H](Cc1ccc(C)cc1)C(=O)O; NMedβ3hAla = C[C@H](CC(=O)[*:2])N(C)[*:1]; Phe(3-I) = N[C@@H](Cc1cccc(I)c1)C(=O)O; NMeAla(cPr) = CN[C@@H](CC1CC1)C(=O)O; NMeCha = CN[C@@H](CC1CCCCC1)C(=O)O; NMeChg = CN[C@H](C(=O)O)C1CCCCC1; hPhe = N[C@@H](CCc1ccccc1)C(=O)O; N(CH2CH2)2CF2 = FC1(F)CCN(*)CC1; NMeD = CN[C@@H](CC(=O)O)C(=O)O; NMeL = CN[C@@H](CC(C)C)C(=O)O; NMeV = CN[C@H](C(=O)O)C(C)C; d(β3hA) = C[C@@H](N)CC(=O)O; dIva = CC[C@@](C)(N)C(=O)O; NMeA = CN[C@@H](C)C(=O)O; NMeAib = CNC(C)(C)C(=O)O; Nle = CCCC[C@H](N)C(=O)O; Piperidide = C1CCN(*)CC1; Pyrrolidide = C1CCN(*)C1; Ac5c = NC1(C(=O)O)CCCC1; Ac4c = NC1(C(=O)O)CCC1; Ac3c = NC1(C(=O)O)CC1; Sar = CNCC(=O)O
The compounds below were run on Human pancreatic cancer cell line AsPC-1 (G12D mutation Kras) (assay: AsPC-1 cell growth inhibition (AsPC-1 CGI)). Details: read-out: AsPC-1 cell growth inhibition, 50% growth inhibitory concentration (IC50 value); 96 hours, CellTiter-Glo, values classified in ranges.
Assay type: cell-based
Protocol: Test compounds were serially dilated with dimethyl sulfoxide, and 200 nL was then dispensed to a U-bottom 96-well plate using Labcyte Echo. […] The cell suspension was dispensed to a. plate containing a test compound at 100 μL per well and incubated at 37° C. in a 5% carbon dioxide gas incubator. 96 hours later, 80 μL of CellTiter-Glo (Promega) was added to each well and fluorescence was measured.
For `CC[C@H](C)[C@@H]1NC(=O)[C@H](CC(F)(F)F)N(C)C(=O)C[C@@H](C(=O)N2CCCC2)N(C)C(=O)[C@H](C2CCCCC2)N(C)C(=O)C2(CCCC2)NC(=O)[C@@H]2CCCN2C(=O)[C@H](CCc2ccc(C(F)(F)F)c(Cl)c2)NC(=O)CN(C)C(=O)[C@H](Cc2ccc(C(F)(F)F)cc2)N(C)C(=O)CN(C)C(=O)CN(C)C1=O` [Compound 245] ([NMeAbu(4,4,4-F3)]I[Sar][Sar][NMePhe(4-CF3)][Sar][hPhe(3-Cl-4-CF3)]P[Ac5c][NMeChg][NMeD]-Pyrrolidide; lactam N-11), the IC50 was ≤ 20 nM. `CC[C@H](C)[C@@H]1NC(=O)[C@H](CC(C)C)N(C)C(=O)C[C@@H](C(=O)N2CCCCC2)N(C)C(=O)[C@H](CC(C)C)NC(=O)C(C)(C)N(C)C(=O)[C@H](Cc2ccc(OC)cc2)NC(=O)[C@H](Cc2cccc(I)c2)NC(=O)CN(C)C(=O)[C@H](Cc2ccc(C)cc2)N(C)C(=O)CN(C)C(=O)CN(C)C1=O` [Compound 247] ([NMeL]I[Sar][Sar][NMePhe(4-Me)][Sar][Phe(3-I)]Y(Me)[NMeAib]L[NMeD]-Piperidide; lactam N-11) was tested, and the IC50 was > 500 nM. With `CC[C@H](C)[C@@H]1NC(=O)[C@H](CC2CC2)N(C)C(=O)C[C@@H](C)NC(=O)[C@H](C(C)C)N(C)C(=O)C2(CCCC2)NC(=O)[C@@H]2CCCN2C(=O)[C@H](CCc2ccc(C(F)(F)F)c(Cl)c2)NC(=O)CN(C)C(=O)[C@H](CC2CCCCC2)N(C)C(=O)CN(C)C(=O)CN(C)C1=O` [Compound 248] (cyclo([Ac5c][NMeV][d(β3hA)][NMeAla(cPr)]I[Sar][Sar][NMeCha][Sar][hPhe(3-Cl-4-CF3)]P)) the IC50 was > 500 nM. With `CC[C@H](C)[C@@H]1NC(=O)[C@H](CC(C)C)N(C)C(=O)C[C@@H](C(=O)N2CCCCC2)N(C)C(=O)[C@H](C(C)C)N(C)C(=O)C2(CCC2)NC(=O)[C@H](CC(=O)N2CCC(F)(F)CC2)N(C)C(=O)[C@H](CCc2ccc(C(F)(F)F)c(Cl)c2)NC(=O)CN(C)C(=O)[C@H](CC2CCCCC2)N(C)C(=O)CN(C)C(=O)CN(C)C1=O` [Compound 251] ([NMeL]I[Sar][Sar][NMeCha][Sar][hPhe(3-Cl-4-CF3)][NMeD](N(CH2CH2)2CF2)[Ac4c][NMeV][NMeD]-Piperidide; lactam N-11) the IC50 was > 500 nM. With `CCCC[C@@H]1NC(=O)[C@H](Cc2cccc(I)c2)NC(=O)CN(C)C(=O)[C@H](Cc2ccc(Cl)cc2)N(C)C(=O)CN(C)C(=O)CN(C)C(=O)[C@H]([C@@H](C)CC)NC(=O)[C@H](CC(C)C)N(C)C(=O)C[C@@H](C(=O)N2CCCCC2)N(C)C(=O)[C@H](CC(C)C)NC(=O)[C@H](Cc2ccccc2OC)N(C)C1=O` [Compound 259] ([NMeL]I[Sar][Sar][NMePhe(4-Cl)][Sar][Phe(3-I)][Nle][NMePhe(2-OMe)]L[NMeD]-Piperidide; lactam N-11) the IC50 was > 500 nM. `CC[C@H](C)[C@@H]1NC(=O)[C@H](CC(C)C)N(C)C(=O)C[C@@H](C(=O)N2CCCCC2)N(C)C(=O)[C@H](C(C)C)N(C)C(=O)C2(CCCC2)NC(=O)[C@@H]2CCCN2C(=O)[C@H](CCc2ccccc2)NC(=O)CN(C)C(=O)[C@H](CC2CCCCC2)N(C)C(=O)CN(C)C(=O)CN(C)C1=O` [Compound 265] ([NMeL]I[Sar][Sar][NMeCha][Sar][hPhe]P[Ac5c][NMeV][NMeD]-Piperidide; lactam N-11) was tested, and the IC50 was > 500 nM. For `CC[C@H](C)[C@@H]1NC(=O)[C@H](C)N(C)C(=O)C[C@@H](C(=O)N2CCCCC2)N(C)C(=O)[C@H](C(C)C)N(C)C(=O)C2(CCCC2)NC(=O)[C@@H]2CCCN2C(=O)[C@H](CCc2ccc(C(F)(F)F)c(F)c2)NC(=O)CN(C)C(=O)[C@H](CC2CCCCC2)N(C)C(=O)CN(C)C(=O)CN(C)C1=O` [Compound 266] ([NMeA]I[Sar][Sar][NMeCha][Sar][hPhe(3-F,4-CF3)]P[Ac5c][NMeV][NMeD]-Piperidide; lactam N-11), the IC50 was > 500 nM. In the case of `CC[C@H](C)[C@@H]1NC(=O)[C@H](CC(C)C)N(C)C(=O)C[C@@H](C)N(C)C(=O)[C@H](C(C)C)N(C)C(=O)C2(CC2)NC(=O)[C@@H]2CCCN2C(=O)[C@H](CCc2ccc(C(F)(F)F)c(Cl)c2)NC(=O)CN(C)C(=O)[C@H](CC2CCCCC2)N(C)C(=O)CN(C)C(=O)CN(C)C1=O` [Compound 268] (cyclo([Ac3c][NMeV][NMedβ3hAla][NMeL]I[Sar][Sar][NMeCha][Sar][hPhe(3-Cl-4-CF3)]P)), the IC50 is reported as > 500 nM. `CC[C@H](C)[C@@H]1NC(=O)[C@H](CC(C)C)N(C)C(=O)C[C@@H](C)NC(=O)[C@H](C(C)C)N(C)C(=O)[C@@](C)(CC)NC(=O)[C@@H]2CCCN2C(=O)[C@H](CCc2ccc(C(F)(F)F)c(Cl)c2)NC(=O)CN(C)C(=O)[C@H](CC2CCCCC2)N(C)C(=O)CN(C)C(=O)CN(C)C1=O` [Compound 275] (cyclo(I[Sar][Sar][NMeCha][Sar][hPhe(3-Cl-4-CF3)]P[dIva][NMeV][d(β3hA)][NMeL])) was tested, and the IC50 was > 500 nM.

Reference: patent US20240148821A1, “PHARMACEUTICAL USE OF CYCLIC PEPTIDE COMPOUND” (CHUGAI SEIYAKU KABUSHIKI KAISHA, priority 2021, published 2024)
